Calls of active or inactive are those of the source.
Experiments:
Cytochrome P450 2C9 = Cytochrome P450 2C9 (Homo sapiens, UniProt P11712)
Cytochrome P450 2D6 = Cytochrome P450 2D6 (Homo sapiens, UniProt P10635);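 also: CYP2D6 member of a cytochrome P450 panel assay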
[1] = molecular target: Epstein-Barr nuclear antigen 1 (Epstein-Barr virus (strain B95-8) (HHV-4) (Human herpesvirus 4), UniProt P03211); test: inhibition of EBV nuclear antigen 1 DNA binding – biochemical, fluorescence polarization, 1536-well, dose response (AID 2381); design: species or system human gammaherpesvirus 4;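 also: fluorescence polarization of a Cy5 DNA probe bound by EBNA-1 protein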
Epstein-Barr nuclear antigen 1, sequence (P03211 whole entry): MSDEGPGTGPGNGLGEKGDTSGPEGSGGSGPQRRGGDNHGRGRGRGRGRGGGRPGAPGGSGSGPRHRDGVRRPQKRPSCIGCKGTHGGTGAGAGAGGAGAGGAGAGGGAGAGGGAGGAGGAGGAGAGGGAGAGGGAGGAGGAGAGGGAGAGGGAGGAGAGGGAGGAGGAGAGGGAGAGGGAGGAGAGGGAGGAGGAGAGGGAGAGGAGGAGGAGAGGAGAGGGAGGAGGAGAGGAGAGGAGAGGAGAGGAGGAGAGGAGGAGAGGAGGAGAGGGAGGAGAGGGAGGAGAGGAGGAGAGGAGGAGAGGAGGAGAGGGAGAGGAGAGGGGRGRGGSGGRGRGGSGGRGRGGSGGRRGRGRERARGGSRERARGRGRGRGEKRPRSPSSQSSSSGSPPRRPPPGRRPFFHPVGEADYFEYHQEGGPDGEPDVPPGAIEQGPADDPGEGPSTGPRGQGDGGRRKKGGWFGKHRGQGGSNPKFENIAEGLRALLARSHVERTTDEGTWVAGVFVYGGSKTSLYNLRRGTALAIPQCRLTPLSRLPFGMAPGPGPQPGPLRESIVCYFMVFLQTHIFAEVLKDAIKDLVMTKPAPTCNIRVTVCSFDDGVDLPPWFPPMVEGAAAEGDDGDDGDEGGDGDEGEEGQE

[2] = molecular target: Lytic switch protein BZLF1 (Epstein-Barr virus (strain B95-8) (HHV-4) (Human herpesvirus 4), UniProt P03206); test: inhibition of BZLF1 ZTA DNA binding – biochemical, fluorescence polarization, Epstein-Barr virus, 1536-well, counter-screen for EBNA-1 inhibitor project, dose response (AID 2377); design: species or system human gammaherpesvirus 4;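 also: fluorescence polarization of Cy5-labelled ZRE DNA probe bound by purified Zta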
Lytic switch protein BZLF1, sequence (P03206 whole entry): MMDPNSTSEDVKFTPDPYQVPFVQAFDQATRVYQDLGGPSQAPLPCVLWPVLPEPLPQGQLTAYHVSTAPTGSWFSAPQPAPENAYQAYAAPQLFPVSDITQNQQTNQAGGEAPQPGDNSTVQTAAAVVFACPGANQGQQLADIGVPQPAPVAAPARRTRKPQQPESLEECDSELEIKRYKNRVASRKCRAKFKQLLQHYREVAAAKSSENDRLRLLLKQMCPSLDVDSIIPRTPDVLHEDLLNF

[3] = molecular target: Sphingosine 1-phosphate receptor 2 (Homo sapiens, UniProt O95136); test: Dose Response Cell Based Assay for Agonists of the S1P2 Receptor of Purchased Analogues. [Related pubchem assays: 729, 843, 854, 736 ]; type: functional
Bcl-2-related protein A1 [4] = molecular target: T1, Bcl-2-related protein A1 (Mus musculus, UniProt Q07440); test: small-molecule antagonists of Bfl-1/BH3 interaction – biochemical, TR-FRET, mouse Bfl-1, confirmation (AID 621);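 also: TR-FRET binding of GST-Bfl-1 to FITC-labelled Bid peptide via terbium antibody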
T1 sequence (Q07440 whole entry): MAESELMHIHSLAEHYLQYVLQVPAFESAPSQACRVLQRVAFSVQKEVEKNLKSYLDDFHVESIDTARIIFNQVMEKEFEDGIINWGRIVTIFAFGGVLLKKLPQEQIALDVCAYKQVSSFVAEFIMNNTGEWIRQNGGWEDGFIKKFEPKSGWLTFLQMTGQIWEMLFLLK

Bcl-2-related protein A1 [5] = molecular target: T1, Bcl-2-related protein A1; test: displacement of Bid BH3 peptide from Bfl-1 – biochemical, fluorescence polarization, FITC-Bid, mouse, primary screen (AID 432)
SUMO-activating enzyme [6] = molecular target: T2, SUMO-activating enzyme (Homo sapiens, UniProt Q9UBT2); test: blockers of UBC9-mediated SUMO conjugation – biochemical, AlphaScreen, SUMOylation inhibitor project, confirmation (AID 2018); type: functional
T2 sequence (Q9UBE0 whole entry): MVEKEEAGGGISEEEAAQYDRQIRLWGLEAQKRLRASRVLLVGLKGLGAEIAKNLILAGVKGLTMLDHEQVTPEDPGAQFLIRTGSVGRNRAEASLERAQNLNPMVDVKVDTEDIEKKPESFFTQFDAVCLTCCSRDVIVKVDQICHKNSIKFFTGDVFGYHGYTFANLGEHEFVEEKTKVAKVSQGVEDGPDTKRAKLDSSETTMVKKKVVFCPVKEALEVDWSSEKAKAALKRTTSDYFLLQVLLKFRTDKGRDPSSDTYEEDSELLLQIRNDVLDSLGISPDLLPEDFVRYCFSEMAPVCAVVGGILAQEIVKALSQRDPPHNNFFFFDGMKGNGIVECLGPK
T2 sequence (Q9UBT2 whole entry): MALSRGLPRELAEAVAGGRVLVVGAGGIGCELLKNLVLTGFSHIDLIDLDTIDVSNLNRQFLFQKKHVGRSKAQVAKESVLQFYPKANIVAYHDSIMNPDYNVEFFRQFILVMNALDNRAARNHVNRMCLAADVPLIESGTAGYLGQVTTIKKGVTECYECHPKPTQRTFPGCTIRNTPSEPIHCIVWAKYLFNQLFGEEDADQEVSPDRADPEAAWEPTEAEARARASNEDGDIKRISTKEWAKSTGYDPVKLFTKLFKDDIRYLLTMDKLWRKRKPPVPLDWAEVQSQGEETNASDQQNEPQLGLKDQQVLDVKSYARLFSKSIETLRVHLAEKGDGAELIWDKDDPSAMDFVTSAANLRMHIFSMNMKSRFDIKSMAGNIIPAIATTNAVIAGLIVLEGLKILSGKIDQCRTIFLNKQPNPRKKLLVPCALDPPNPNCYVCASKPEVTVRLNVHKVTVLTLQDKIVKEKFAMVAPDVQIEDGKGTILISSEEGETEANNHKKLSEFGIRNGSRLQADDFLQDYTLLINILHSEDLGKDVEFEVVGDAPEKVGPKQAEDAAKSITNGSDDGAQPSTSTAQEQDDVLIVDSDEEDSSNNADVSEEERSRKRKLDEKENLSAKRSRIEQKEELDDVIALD

[7] = molecular target: T3, Sentrin-specific protease 8 (Homo sapiens, UniProt Q96LD8); type: functional
T3 sequence (Q96LD8 whole entry): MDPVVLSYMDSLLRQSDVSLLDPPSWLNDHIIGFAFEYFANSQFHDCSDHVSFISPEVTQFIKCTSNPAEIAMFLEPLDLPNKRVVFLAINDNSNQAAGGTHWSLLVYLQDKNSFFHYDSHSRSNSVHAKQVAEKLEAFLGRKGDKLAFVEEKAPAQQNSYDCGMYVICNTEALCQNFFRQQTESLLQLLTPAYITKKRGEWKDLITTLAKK

[8] = molecular target: Ras and Rab interactor 1/Tyrosine-protein kinase ABL1 (Homo sapiens, UniProt P00519+Q13671); type: functional;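 also: biochemical TR-FRET dose-response test measuring inhibition of binding between Rin1 and Abl proteins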
Ras and Rab interactor 1/Tyrosine-protein kinase ABL1, sequence (P00519 whole entry): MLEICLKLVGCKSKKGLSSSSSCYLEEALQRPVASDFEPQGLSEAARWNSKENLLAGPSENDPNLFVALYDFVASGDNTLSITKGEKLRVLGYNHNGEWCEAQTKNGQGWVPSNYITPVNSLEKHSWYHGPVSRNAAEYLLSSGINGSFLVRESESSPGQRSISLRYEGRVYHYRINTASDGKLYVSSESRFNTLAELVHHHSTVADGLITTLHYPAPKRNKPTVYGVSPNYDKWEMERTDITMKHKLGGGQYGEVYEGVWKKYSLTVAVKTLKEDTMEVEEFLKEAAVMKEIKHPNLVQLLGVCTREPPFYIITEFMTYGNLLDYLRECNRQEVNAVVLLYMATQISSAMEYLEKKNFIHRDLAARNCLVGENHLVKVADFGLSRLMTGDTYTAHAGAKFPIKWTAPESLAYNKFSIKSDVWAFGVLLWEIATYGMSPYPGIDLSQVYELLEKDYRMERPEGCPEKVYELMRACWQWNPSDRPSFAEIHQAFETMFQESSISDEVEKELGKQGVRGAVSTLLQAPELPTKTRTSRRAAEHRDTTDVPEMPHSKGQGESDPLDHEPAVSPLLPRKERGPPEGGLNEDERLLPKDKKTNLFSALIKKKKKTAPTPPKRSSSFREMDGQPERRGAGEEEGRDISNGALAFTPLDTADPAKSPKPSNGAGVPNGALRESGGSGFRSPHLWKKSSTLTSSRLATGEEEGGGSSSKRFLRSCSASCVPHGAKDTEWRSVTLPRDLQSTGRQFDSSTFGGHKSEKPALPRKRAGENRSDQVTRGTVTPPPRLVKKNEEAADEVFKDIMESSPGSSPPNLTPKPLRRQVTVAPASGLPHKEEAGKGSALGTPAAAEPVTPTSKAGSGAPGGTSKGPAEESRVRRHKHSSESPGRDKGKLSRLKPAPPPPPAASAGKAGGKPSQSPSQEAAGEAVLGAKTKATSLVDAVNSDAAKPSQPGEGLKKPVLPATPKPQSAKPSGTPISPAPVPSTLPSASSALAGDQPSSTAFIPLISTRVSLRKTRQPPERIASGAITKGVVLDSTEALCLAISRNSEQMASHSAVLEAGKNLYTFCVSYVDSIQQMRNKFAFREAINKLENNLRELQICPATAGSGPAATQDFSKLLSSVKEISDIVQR
Ras and Rab interactor 1/Tyrosine-protein kinase ABL1, sequence (Q13671 whole entry): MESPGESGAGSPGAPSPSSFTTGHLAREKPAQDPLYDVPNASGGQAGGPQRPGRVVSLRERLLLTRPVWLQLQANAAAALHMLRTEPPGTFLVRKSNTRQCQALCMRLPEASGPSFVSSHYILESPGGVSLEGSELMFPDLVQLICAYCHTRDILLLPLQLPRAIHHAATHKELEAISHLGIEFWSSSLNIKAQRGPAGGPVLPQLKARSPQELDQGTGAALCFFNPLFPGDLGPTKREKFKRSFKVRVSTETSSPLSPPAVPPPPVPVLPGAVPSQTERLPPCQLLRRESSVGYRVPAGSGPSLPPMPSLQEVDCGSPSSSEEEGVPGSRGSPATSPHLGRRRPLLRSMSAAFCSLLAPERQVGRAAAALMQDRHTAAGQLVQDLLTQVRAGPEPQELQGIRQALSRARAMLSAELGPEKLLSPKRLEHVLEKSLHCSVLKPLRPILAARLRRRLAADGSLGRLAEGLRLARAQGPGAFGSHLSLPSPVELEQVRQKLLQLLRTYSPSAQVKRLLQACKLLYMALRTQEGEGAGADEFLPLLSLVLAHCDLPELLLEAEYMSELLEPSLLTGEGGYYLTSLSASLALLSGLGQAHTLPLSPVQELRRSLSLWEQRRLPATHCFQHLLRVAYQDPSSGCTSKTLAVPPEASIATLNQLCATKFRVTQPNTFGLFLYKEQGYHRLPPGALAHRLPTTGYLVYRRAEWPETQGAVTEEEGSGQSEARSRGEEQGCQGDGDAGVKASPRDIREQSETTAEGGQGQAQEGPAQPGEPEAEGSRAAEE

[9] = molecular target: T4, Serine/threonine-protein phosphatase (Homo sapiens, UniProt Q9BPW0); test: inhibition of protein phosphatase 5 activity – biochemical, fluorescence, dose response (AID 2395)
T4 sequence (Q9BPW0 whole entry): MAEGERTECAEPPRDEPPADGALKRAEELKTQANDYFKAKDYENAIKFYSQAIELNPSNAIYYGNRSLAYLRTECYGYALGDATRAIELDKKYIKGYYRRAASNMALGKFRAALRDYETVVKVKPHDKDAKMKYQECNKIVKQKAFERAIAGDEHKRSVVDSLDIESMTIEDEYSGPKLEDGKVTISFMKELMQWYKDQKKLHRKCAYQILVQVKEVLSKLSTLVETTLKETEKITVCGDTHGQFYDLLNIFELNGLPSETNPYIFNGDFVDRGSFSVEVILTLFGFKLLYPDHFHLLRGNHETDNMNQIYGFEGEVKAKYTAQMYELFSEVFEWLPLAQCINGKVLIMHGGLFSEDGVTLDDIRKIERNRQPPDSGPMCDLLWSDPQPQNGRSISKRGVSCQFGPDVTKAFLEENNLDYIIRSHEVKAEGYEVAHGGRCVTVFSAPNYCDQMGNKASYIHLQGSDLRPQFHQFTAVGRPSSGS

[10] = molecular target: Serine/threonine-protein phosphatase PP1-alpha catalytic subunit (Homo sapiens, UniProt P62136); test: inhibition of protein phosphatase 1 activity – biochemical, fluorescence, dose response (AID 2394)
Serine/threonine-protein phosphatase PP1-alpha catalytic subunit, sequence (P62136 whole entry): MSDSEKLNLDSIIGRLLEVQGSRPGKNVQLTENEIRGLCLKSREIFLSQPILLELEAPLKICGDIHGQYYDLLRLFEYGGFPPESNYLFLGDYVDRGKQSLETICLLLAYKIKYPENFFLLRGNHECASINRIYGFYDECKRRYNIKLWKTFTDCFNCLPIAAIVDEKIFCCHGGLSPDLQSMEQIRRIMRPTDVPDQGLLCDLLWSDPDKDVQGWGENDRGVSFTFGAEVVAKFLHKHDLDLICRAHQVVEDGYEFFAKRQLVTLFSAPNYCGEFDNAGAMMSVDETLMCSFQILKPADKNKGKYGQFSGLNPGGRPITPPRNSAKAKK

[11] = molecular target: T5, Apoptotic protease-activating factor 1 (Homo sapiens, UniProt O14727); type: functional
T5 sequence (O14727 whole entry): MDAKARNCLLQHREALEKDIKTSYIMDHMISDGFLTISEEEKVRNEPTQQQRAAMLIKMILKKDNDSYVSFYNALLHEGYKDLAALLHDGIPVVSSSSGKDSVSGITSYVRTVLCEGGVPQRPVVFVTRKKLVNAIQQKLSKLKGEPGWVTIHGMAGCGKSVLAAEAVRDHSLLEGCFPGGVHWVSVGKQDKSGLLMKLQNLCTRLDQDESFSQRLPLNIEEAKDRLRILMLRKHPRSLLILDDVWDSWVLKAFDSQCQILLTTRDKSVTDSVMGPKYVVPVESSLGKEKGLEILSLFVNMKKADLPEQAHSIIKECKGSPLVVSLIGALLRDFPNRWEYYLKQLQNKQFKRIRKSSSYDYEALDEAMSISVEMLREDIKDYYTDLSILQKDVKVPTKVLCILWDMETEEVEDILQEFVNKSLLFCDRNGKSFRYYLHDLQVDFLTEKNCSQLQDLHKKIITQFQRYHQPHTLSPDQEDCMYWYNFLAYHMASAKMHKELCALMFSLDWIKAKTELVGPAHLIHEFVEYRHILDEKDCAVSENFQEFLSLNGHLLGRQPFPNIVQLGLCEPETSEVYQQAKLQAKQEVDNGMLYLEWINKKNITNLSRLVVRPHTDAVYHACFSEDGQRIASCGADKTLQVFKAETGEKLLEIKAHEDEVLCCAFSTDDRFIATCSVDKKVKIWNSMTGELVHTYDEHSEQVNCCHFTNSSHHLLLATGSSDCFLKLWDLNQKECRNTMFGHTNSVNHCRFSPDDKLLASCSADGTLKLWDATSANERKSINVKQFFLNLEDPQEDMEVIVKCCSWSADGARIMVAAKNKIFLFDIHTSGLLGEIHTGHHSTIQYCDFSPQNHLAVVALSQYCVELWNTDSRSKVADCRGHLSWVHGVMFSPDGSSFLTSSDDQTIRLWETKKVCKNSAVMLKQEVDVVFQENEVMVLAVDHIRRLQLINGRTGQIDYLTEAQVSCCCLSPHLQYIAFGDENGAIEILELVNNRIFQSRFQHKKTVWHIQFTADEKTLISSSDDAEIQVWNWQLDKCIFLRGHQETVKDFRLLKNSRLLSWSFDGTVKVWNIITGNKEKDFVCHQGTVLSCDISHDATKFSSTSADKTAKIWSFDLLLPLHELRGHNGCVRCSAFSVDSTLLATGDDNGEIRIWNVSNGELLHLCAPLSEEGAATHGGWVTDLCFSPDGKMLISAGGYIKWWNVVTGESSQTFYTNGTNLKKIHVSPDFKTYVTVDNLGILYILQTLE

[12] = molecular target: T3, Sentrin-specific protease 8; type: functional; remark: listed apart in the source
SUMO-activating enzyme [13] = molecular target: T2, SUMO-activating enzyme; test: blockers of SAE1/SAE2–UBC9 SUMO transfer – biochemical, HTRF, uHTS, primary screen (AID 2006); type: protein-complex assay
[14] = molecular target: Tyrosyl-DNA phosphodiesterase 2 (Homo sapiens, UniProt O95551); test: potency against TDP2 phosphodiesterase activity – biochemical, epi absorbance, IC50, dose response (AID 743297)
Tyrosyl-DNA phosphodiesterase 2, sequence (O95551 whole entry): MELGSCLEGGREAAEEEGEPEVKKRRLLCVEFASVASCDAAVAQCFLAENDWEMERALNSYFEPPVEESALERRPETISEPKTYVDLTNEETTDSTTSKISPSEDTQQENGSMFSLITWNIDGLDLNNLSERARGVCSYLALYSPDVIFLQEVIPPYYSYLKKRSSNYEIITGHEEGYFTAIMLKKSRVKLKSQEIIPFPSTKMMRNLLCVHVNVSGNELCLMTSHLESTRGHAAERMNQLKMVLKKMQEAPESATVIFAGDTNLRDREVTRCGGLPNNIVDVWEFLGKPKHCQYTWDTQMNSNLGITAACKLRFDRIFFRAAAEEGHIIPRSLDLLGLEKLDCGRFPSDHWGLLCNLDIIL

[15] = molecular target: T6, Histone-lysine N-methyltransferase NSD2 (Homo sapiens, UniProt O96028); type: biochemical
T6 sequence (O96028 whole entry): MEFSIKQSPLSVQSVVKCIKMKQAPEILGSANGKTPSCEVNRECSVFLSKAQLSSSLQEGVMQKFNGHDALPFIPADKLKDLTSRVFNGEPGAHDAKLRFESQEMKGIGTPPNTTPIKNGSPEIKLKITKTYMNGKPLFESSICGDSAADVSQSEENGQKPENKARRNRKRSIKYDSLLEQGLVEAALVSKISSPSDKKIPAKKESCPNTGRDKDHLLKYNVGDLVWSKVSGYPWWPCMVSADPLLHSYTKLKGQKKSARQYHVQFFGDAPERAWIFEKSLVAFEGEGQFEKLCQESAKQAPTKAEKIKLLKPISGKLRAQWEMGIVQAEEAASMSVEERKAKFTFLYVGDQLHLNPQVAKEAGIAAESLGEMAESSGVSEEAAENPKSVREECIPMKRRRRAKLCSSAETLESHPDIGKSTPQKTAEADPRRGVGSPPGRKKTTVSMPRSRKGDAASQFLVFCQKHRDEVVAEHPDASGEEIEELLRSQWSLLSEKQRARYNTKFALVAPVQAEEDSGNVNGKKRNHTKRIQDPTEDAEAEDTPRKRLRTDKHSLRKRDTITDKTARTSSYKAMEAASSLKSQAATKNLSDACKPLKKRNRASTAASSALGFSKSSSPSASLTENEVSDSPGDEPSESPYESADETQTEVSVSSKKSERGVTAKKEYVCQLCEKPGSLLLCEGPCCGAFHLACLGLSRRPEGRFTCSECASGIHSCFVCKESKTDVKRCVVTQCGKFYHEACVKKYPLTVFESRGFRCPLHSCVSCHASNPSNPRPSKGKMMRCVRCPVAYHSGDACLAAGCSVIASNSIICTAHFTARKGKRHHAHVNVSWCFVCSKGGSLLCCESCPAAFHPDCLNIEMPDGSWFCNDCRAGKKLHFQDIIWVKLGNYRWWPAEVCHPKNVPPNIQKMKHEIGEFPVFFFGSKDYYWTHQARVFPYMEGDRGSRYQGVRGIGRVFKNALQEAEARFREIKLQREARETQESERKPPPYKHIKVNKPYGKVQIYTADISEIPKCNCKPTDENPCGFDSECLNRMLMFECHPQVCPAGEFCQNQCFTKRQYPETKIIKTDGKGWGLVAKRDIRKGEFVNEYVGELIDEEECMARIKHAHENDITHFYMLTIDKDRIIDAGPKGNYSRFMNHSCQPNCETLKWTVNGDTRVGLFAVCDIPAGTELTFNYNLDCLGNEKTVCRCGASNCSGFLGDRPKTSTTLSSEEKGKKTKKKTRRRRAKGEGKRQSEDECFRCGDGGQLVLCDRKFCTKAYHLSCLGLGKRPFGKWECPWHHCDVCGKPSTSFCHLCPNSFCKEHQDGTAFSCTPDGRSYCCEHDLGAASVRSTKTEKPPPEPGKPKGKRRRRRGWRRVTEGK

[16] = Luminescence Cell-Based Dose Confirmation to Identify Activators of 5'UTR Stem-Loop Driven Alpha-Synuclein mRNA Translation in H4 Neuroglioblastoma Cells. [Related pubchem assays: 1829 (Project Summary), 1814 (Primary HTS)]; type: functional
[17] = Luminescence Cell-Based Dose Confirmation HTS to Identify Activators of 5'UTR Stem-Loop Driven Alpha-Synuclein mRNA Translation in H4 Neuroglioblastoma Cells. [Related pubchem assays: 1829 (Project Summary), 1814 (Primary HTS)]; type: functional
[18] = Luminescence Cell-Based Dose Response HTS to Identify Activators of Luciferase Translation or Activity in H4 […] Cells. [Related pubchem assays: 1829 (Project Summary), 1814 (Primary HTS)]; type: functional
H4 = test: Luminescence Cell-Based Dose Response HTS to Identify Activators of 5'UTR Stem-Loop Driven Prion Protein mRNA Translation in H4 Neuroglioblastoma Cells. [Related pubchem assays: 1829 (Project Summary), 1814 (Primary HTS)]; type: functional; conditions: Homo sapiens
[19] = Luminescence Cell-Based Dose Response to Identify Activators of 5'UTR Stem-Loop Driven Prion Protein mRNA Translation in H4-C Neuroglioblastoma Cells. [Related pubchem assays: 1829 (Project Summary), 1814 (Primary HTS)]; type: functional
[20] = Luminescence Cell-Based Dose Response to Identify Activators of Luciferase Translation or Activity in H4-C Neuroglioblastoma Cells. [Related pubchem assays: 1829 (Project Summary), 1814 (Primary HTS)]; type: functional
[21] = molecular target: Mothers against decapentaplegic homolog 3 (Homo sapiens, UniProt P84022); test: inhibitors of SMAD-driven TGF-beta signaling – dose response (AID 715); type: functional
NADPH oxidase 1 = NADPH oxidase 1 (Homo sapiens, UniProt Q9Y5S8); type: functional, cell-based;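 also: Cell-based assay with luminescence read-out, IC50 derived from inhibitor dose-response curves; intracellular ROS from endogenous NOX1 in intact HT29 colon cancer cells; potency of inhibitors that lower the ROS luminescence signal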

Cytochrome P450 2C9, sequence (P11712 whole entry): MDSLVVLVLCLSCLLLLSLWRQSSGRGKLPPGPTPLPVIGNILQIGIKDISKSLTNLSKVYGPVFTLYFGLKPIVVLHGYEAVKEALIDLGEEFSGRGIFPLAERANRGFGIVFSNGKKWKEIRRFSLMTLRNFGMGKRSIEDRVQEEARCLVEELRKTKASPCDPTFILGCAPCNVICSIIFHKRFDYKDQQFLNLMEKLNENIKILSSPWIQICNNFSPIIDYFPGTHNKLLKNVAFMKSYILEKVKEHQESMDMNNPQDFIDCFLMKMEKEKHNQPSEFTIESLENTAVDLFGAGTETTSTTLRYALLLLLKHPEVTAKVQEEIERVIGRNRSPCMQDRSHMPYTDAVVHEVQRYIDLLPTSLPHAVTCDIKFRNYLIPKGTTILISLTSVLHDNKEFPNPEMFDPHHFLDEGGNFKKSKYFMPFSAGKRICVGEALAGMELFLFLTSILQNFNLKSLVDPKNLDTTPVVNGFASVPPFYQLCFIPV

COc1ccc(/C=C/C(=O)Oc2cccc(/C=N/NC(=O)COc3c(C)cccc3C)c2)cc1
AC50 (Cytochrome P450 2C9): 3.55 µM (inconclusive) | AC50 (Cytochrome P450 2D6): inconclusive | IC50 [1]: 6.28 µM (active) | IC50 [2]: > 111 µM (not active)

CC(=O)Nc1ccc(OCC(=O)c2cc(C)n(Cc3ccccc3)c2C)cc1
EC50 [3]: > 30 µM (not active)

CCCN1CC=C2C(C#N)=C(N)C(C#N)(C#N)C(c3cccc(OC)c3OC)C2C1 (stereo not given)
IC50 (Bcl-2-related protein A1 [4]): > 100 µM (not active) | IC50 (Bcl-2-related protein A1 [5]): > 100 µM (not active)

CC(=O)C1=C(C)OC2(O)c3ccccc3C(=O)C12O (stereo not given)
IC50 (SUMO-activating enzyme [6]): 3.09 µM (active) | IC50 [7]: 0.754 µM (active) | IC50 [8]: > 73.4 µM (inactive) | IC50 [9]: > 2.48 µM (active) | IC50 [10]: > 67 µM (not active) | IC50 [11]: 8.19 µM (active) | IC50 [12]: 0.455 µM (active) | IC50 (SUMO-activating enzyme [13]): 16.6 µM (active) | IC50 [14]: 7.52 µM (active) | AC50 [15]: 4.82 µM (active)

O=c1c2ccccc2ncn1/N=C/c1ccccc1
EC50 [16]: 0.53 µM (active) | EC50 [17]: < 0.1 µM (active) | EC50 [18]: < 0.1 µM (active) | EC50 (H4): 0.525 µM (active) | EC50 [19]: 2.06 µM (active) | EC50 [20]: 1.16 µM (active)

Cc1ccc(CCN2CC(C(=O)NCCCN3CCCCCC3)CC2=O)cc1 (stereo not given)
IC50 [21]: 11.1 µM (active)

O=C(Cc1ccc([N+](=O)[O-])cc1)Nc1ccc(Oc2ccccc2)cc1
IC50 (NADPH oxidase 1): > 17 µM (not active)

Source: ChEMBL document CHEMBL1201862, “PubChem BioAssay data set” (2004)
